Assay results as given in PubChem BioAssay (NCI).
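Five compound concentrations were applied to cells in 96-well plates for 48 hours; endpoints were derived by simple linear interpolation of the resulting dose-response curve. GI50 marks 50% less growth. The concentration for full growth arrest is given as TGI.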

Experiments:
Assay in all cases: growth of human tumour cells (NCI), 48 h
HCT-15 colon = system: HCT-15 colon
HCT-116 colon = system: HCT-116 colon
BT-549 breast = system: BT-549 breast
NCI-H460 lung = system: NCI-H460 lung
NCI/ADR-RES ovarian = system: NCI/ADR-RES ovarian
SNB-19 CNS = system: SNB-19 CNS
MOLT-4 leukemia = system: MOLT-4 leukemia
SF-295 CNS = system: SF-295 CNS
T-47D breast = system: T-47D breast
SN12C renal = system: SN12C renal
HOP-62 NSCLC = system: HOP-62 NSCLC
A498 renal = system: A498 renal
OVCAR-8 ovarian = system: OVCAR-8 ovarian
DU-145 prostate = system: DU-145 prostate
MDA-MB-231 breast = system: MDA-MB-231 breast
A549 NSCLC = system: A549 NSCLC
SK-MEL-5 melanoma = system: SK-MEL-5 melanoma
MALME-3M melanoma = system: MALME-3M melanoma
UO-31 renal = system: UO-31 renal
SK-MEL-2 melanoma = system: SK-MEL-2 melanoma
SR leukemia = system: SR leukemia
PC-3 prostate = system: PC-3 prostate
LOX IMVI melanoma = system: LOX IMVI melanoma
COLO 205 colon = system: COLO 205 colon
SNB-75 CNS = system: SNB-75 CNS
NCI-H23 lung = system: NCI-H23 lung
HCC-2998 colon = system: HCC-2998 colon
K-562 leukemia = system: K-562 leukemia
OVCAR-4 ovarian = system: OVCAR-4 ovarian
MCF7 breast = system: MCF7 breast
TK-10 renal = system: TK-10 renal
OVCAR-5 ovarian = system: OVCAR-5 ovarian
ACHN renal = system: ACHN renal
SW-620 colon = system: SW-620 colon
786-0 renal = system: 786-0 renal
U251 CNS = system: U251 CNS
CAKI-1 renal = system: CAKI-1 renal
OVCAR-3 ovarian = system: OVCAR-3 ovarian
SK-MEL-28 melanoma = system: SK-MEL-28 melanoma
KM12 colon = system: KM12 colon
HOP-92 NSCLC = system: HOP-92 NSCLC
RPMI-8226 leukemia = system: RPMI-8226 leukemia
RXF 393 renal = system: RXF 393 renal
HT29 colon = system: HT29 colon
EKVX NSCLC = system: EKVX NSCLC
HS 578T breast = system: HS 578T breast
UACC-257 melanoma = system: UACC-257 melanoma
HL-60(TB) leukemia = system: HL-60(TB) leukemia
UACC-62 melanoma = system: UACC-62 melanoma
SF-268 CNS = system: SF-268 CNS
CCRF-CEM leukemia = system: CCRF-CEM leukemia
NCI-H226 lung = system: NCI-H226 lung
SF-539 CNS = system: SF-539 CNS
MDA-MB-435 = system: MDA-MB-435
SK-OV-3 ovarian = system: SK-OV-3 ovarian
IGROV1 ovarian = system: IGROV1 ovarian
NCI-H522 lung = system: NCI-H522 lung
M14 melanoma = system: M14 melanoma
MDA-N = system: MDA-N

Compound: N#Cc1nc2c(S(=O)(=O)c3ccc(Cl)cc3)c(N)n(CCCN3CCOCC3)c2nc1C#N
- GI50 (HCT-15 colon): 4.32 µM
- TGI (HCT-15 colon): 27.1 µM
- GI50 (HCT-116 colon): 3.11 µM
- TGI (HCT-116 colon): 13.6 µM
- GI50 (BT-549 breast): 5.75 µM
- TGI (BT-549 breast): 42 µM
- GI50 (NCI-H460 lung): 15.8 µM
- TGI (NCI-H460 lung): 40.9 µM
- GI50 (NCI/ADR-RES ovarian): 33.2 µM
- TGI (NCI/ADR-RES ovarian): > 100 µM
- GI50 (SNB-19 CNS): 28.2 µM
- TGI (SNB-19 CNS): > 100 µM
- GI50 (MOLT-4 leukemia): 2.63 µM
- TGI (MOLT-4 leukemia): 9.64 µM
- GI50 (SF-295 CNS): 17.6 µM
- TGI (SF-295 CNS): 40.7 µM
- GI50 (T-47D breast): 2.95 µM
- TGI (T-47D breast): 16.6 µM
- GI50 (SN12C renal): 10 µM
- TGI (SN12C renal): > 100 µM
- GI50 (HOP-62 NSCLC): 15.2 µM
- TGI (HOP-62 NSCLC): 51.3 µM
- GI50 (A498 renal): 2.6 µM
- TGI (A498 renal): 14.6 µM
- GI50 (OVCAR-8 ovarian): 4.07 µM
- TGI (OVCAR-8 ovarian): > 100 µM
- GI50 (DU-145 prostate): 3.79 µM
- TGI (DU-145 prostate): 19.1 µM
- GI50 (MDA-MB-231 breast): 3.58 µM
- TGI (MDA-MB-231 breast): 14.4 µM
- GI50 (A549 NSCLC): 19.5 µM
- TGI (A549 NSCLC): 84.1 µM
- GI50 (SK-MEL-5 melanoma): 6.67 µM
- TGI (SK-MEL-5 melanoma): 20 µM
- GI50 (MALME-3M melanoma): 3.55 µM
- TGI (MALME-3M melanoma): 18.1 µM
- GI50 (UO-31 renal): 4.58 µM
- TGI (UO-31 renal): > 100 µM
- GI50 (SK-MEL-2 melanoma): 6.77 µM
- TGI (SK-MEL-2 melanoma): 24.5 µM
- GI50 (SR leukemia): 3.58 µM
- TGI (SR leukemia): 31 µM
- GI50 (PC-3 prostate): 26.7 µM
- TGI (PC-3 prostate): 95.4 µM
- GI50 (LOX IMVI melanoma): 4.76 µM
- TGI (LOX IMVI melanoma): 17.3 µM
- GI50 (COLO 205 colon): 3.45 µM
- TGI (COLO 205 colon): 13.6 µM
- GI50 (SNB-75 CNS): 11.1 µM
- TGI (SNB-75 CNS): 48.3 µM
- GI50 (NCI-H23 lung): 7.41 µM
- TGI (NCI-H23 lung): 42.7 µM
- GI50 (HCC-2998 colon): 18 µM
- TGI (HCC-2998 colon): 33.7 µM
- GI50 (K-562 leukemia): 3 µM
- TGI (K-562 leukemia): 31 µM
- GI50 (OVCAR-4 ovarian): 4.78 µM
- TGI (OVCAR-4 ovarian): > 100 µM
- GI50 (MCF7 breast): 3.76 µM
- TGI (MCF7 breast): 16.5 µM
- GI50 (TK-10 renal): 10.1 µM
- TGI (TK-10 renal): 23.6 µM
- GI50 (OVCAR-5 ovarian): 20.8 µM
- TGI (OVCAR-5 ovarian): 54.9 µM
- GI50 (ACHN renal): 3.26 µM
- TGI (ACHN renal): 15.3 µM
- GI50 (SW-620 colon): 2.99 µM
- TGI (SW-620 colon): 14.1 µM
- GI50 (786-0 renal): 17.3 µM
- TGI (786-0 renal): 52.8 µM
- GI50 (U251 CNS): 10.8 µM
- TGI (U251 CNS): 26.7 µM
- GI50 (CAKI-1 renal): 2.64 µM
- TGI (CAKI-1 renal): 13.8 µM
- GI50 (OVCAR-3 ovarian): 3.29 µM
- TGI (OVCAR-3 ovarian): 15.3 µM
- GI50 (SK-MEL-28 melanoma): 4.11 µM
- TGI (SK-MEL-28 melanoma): 15.7 µM
- GI50 (KM12 colon): 12.3 µM
- TGI (KM12 colon): 34.7 µM
- GI50 (HOP-92 NSCLC): 2.72 µM
- TGI (HOP-92 NSCLC): 30.2 µM
- GI50 (RPMI-8226 leukemia): 4.68 µM
- TGI (RPMI-8226 leukemia): 41 µM
- GI50 (RXF 393 renal): 1.05 µM
- TGI (RXF 393 renal): 5.21 µM
- GI50 (HT29 colon): 5.96 µM
- TGI (HT29 colon): > 100 µM
- GI50 (EKVX NSCLC): 10.6 µM
- TGI (EKVX NSCLC): 22.7 µM
- GI50 (HS 578T breast): 1.76 µM
- TGI (HS 578T breast): 5.06 µM
- GI50 (UACC-257 melanoma): 5.91 µM
- TGI (UACC-257 melanoma): 22.7 µM
- GI50 (HL-60(TB) leukemia): 2.14 µM
- TGI (HL-60(TB) leukemia): 6.55 µM
- GI50 (UACC-62 melanoma): 10.8 µM
- TGI (UACC-62 melanoma): 31.1 µM
- GI50 (SF-268 CNS): 5.19 µM
- TGI (SF-268 CNS): 35.4 µM
- GI50 (CCRF-CEM leukemia): 2.19 µM
- TGI (CCRF-CEM leukemia): 6.28 µM
- GI50 (NCI-H226 lung): 2.87 µM
- TGI (NCI-H226 lung): 13.5 µM
- GI50 (SF-539 CNS): 2.31 µM
- TGI (SF-539 CNS): 7.9 µM
- GI50 (MDA-MB-435): 2.21 µM
- TGI (MDA-MB-435): 5.82 µM
- GI50 (SK-OV-3 ovarian): 27.1 µM
- TGI (SK-OV-3 ovarian): > 100 µM

Compound: O=C(Nc1ccc(Cl)cc1)c1cc(S(=O)(=O)Nc2nnc3c(Cl)cc(C(F)(F)F)cn23)c(S)cc1Cl
- TGI (HCT-15 colon): > 100 µM
- TGI (HCT-116 colon): > 100 µM
- TGI (BT-549 breast): > 100 µM
- TGI (NCI-H460 lung): > 100 µM
- TGI (NCI/ADR-RES ovarian): > 100 µM
- TGI (SNB-19 CNS): > 100 µM
- TGI (MOLT-4 leukemia): > 100 µM
- TGI (SF-295 CNS): > 100 µM
- TGI (T-47D breast): > 100 µM
- TGI (SN12C renal): > 100 µM
- TGI (HOP-62 NSCLC): > 100 µM
- TGI (A498 renal): 86.3 µM
- TGI (OVCAR-8 ovarian): > 100 µM
- TGI (DU-145 prostate): > 100 µM
- TGI (MDA-MB-231 breast): > 100 µM
- TGI (A549 NSCLC): > 100 µM
- TGI (SK-MEL-5 melanoma): > 100 µM
- TGI (MALME-3M melanoma): > 100 µM
- TGI (UO-31 renal): > 100 µM
- TGI (SK-MEL-2 melanoma): 74.6 µM
- TGI (SR leukemia): > 100 µM
- TGI (IGROV1 ovarian): > 100 µM
- TGI (PC-3 prostate): > 100 µM
- TGI (COLO 205 colon): > 100 µM
- TGI (NCI-H23 lung): > 100 µM
- TGI (NCI-H522 lung): > 100 µM
- TGI (HCC-2998 colon): > 100 µM
- TGI (K-562 leukemia): > 100 µM
- TGI (OVCAR-4 ovarian): > 100 µM
- TGI (MCF7 breast): > 100 µM
- TGI (TK-10 renal): > 100 µM
- TGI (OVCAR-5 ovarian): > 100 µM
- TGI (ACHN renal): > 100 µM
- TGI (786-0 renal): > 100 µM
- TGI (U251 CNS): > 100 µM
- TGI (CAKI-1 renal): > 100 µM
- TGI (OVCAR-3 ovarian): > 100 µM
- TGI (SK-MEL-28 melanoma): > 100 µM
- TGI (KM12 colon): > 100 µM
- TGI (HOP-92 NSCLC): > 100 µM
- TGI (RPMI-8226 leukemia): > 100 µM
- TGI (RXF 393 renal): > 100 µM
- TGI (HT29 colon): > 100 µM
- TGI (EKVX NSCLC): > 100 µM
- TGI (HS 578T breast): > 100 µM
- TGI (UACC-257 melanoma): > 100 µM
- TGI (HL-60(TB) leukemia): > 100 µM
- TGI (SF-268 CNS): > 100 µM
- TGI (CCRF-CEM leukemia): > 100 µM
- TGI (NCI-H226 lung): > 100 µM
- TGI (SF-539 CNS): > 100 µM
- TGI (MDA-MB-435): > 100 µM
- TGI (M14 melanoma): > 100 µM
- TGI (SK-OV-3 ovarian): > 100 µM

Compound: CNc1ccc(C(=O)CC(O)CCC(C)C2OC(=O)CC(O)CC(=O)CC(O)CC(O)CC(O)CC(O)CC3(O)CC(O)C(C(=O)NCCN4CCOCC4)C(CC(OC4OC(C)C(O)C(N)C4O)/C=C/C=C/C=C/C=C\C=C/C=C/C=C/C2C)O3)cc1 (stereo not given)
- TGI (HCT-116 colon): > 100 µM
- TGI (SNB-19 CNS): > 100 µM
- TGI (MOLT-4 leukemia): > 100 µM
- TGI (T-47D breast): > 100 µM
- TGI (A498 renal): 0.8 µM
- TGI (OVCAR-8 ovarian): 36.8 µM
- TGI (SK-MEL-2 melanoma): 79.1 µM
- TGI (IGROV1 ovarian): > 100 µM
- TGI (SNB-75 CNS): > 100 µM
- TGI (OVCAR-4 ovarian): > 100 µM
- TGI (MDA-N): > 100 µM
- TGI (SW-620 colon): > 100 µM
- TGI (786-0 renal): > 100 µM
- TGI (KM12 colon): > 100 µM
- TGI (HOP-92 NSCLC): > 100 µM
- TGI (RXF 393 renal): > 100 µM
- TGI (UACC-257 melanoma): 1.94 µM
- TGI (UACC-62 melanoma): > 100 µM
- TGI (NCI-H226 lung): > 100 µM
- TGI (SF-539 CNS): > 100 µM
- TGI (MDA-MB-435): > 100 µM
